Laboratory results published in patent publication US12714702B2, “Compositions and methods for treating or preventing pulmonary hypertension” (priority 2020, dated 2026).

Legend:
primary human PASMC = experiment: Standard cell proliferation, CyQUANT Direct; format: cell-based; settings: Day 3 and Day 5, single QA treatment at 3.1 and 6.2 μM
Protocol: Primary human PASMC were treated with QA up to 6.2 μM concentration. Cell proliferation was quantified by Cyquant Direct.
Cellular proliferation for diseased IPAH SMC II (Patient ID: L164) cells was evaluated using CyQUANT™ Direct Cell Proliferation Assay (ThermoFisher Scientific, Waltham, MA, USA). Briefly, upon 90% confluency, SMCs were harvested and seeded in TC-treated 96-well plates at a density of 1000 cells/well and were allowed to adhere overnight.
Human or bovine PASMC were treated with varying concentrations of QA (1.5-, 3.1-, and 6.2-μM). Cellular proliferation was measured at day 1, day 3 and day 5 by following the manufacturer's protocol. Briefly, a reagent mix of nucleic acid stain and background suppressor were added in PBS followed by addition of the mix in treatment wells (100 μL/well). The plates were incubated at 37° C./5% CO2 for one hour followed by evaluation of fluorescence at 485 ex/535 em. Proliferation inhibition was analyzed relative to control wells on each time point. Data was averaged from two trials with n=6 for SMC II and one trial of n=4 for SMC III.
In-vitro studies to measure anti-proliferative activity of QA against pulmonary hypertension were performed using primary human PASMC (FIG. 3), primary bovine PASMC (FIG. 4) and high altitude PASMC (HAPASMC) (FIG. 4). […]

[1] = tested on: pulmonary arterioles of SU5416/hypoxia-induced PAH animals; experiment: SU5416/hypoxia model, muscularization, trichrome staining and medial wall thickness; format: in vivo, rat
Protocol: Adult male rats were injected with SU5416 (20 mg/kg) subcutaneously and were kept under hypoxia (10% O2) for 3 weeks. QA was administered once-a-day intraperitoneally at a dose of 10 mg/kg for 21 days starting from Day 1. […] Data represent mean±SD (n=4-5). *p<0.05.
At the end of treatment period with QA, animals were sacrificed. Chest was surgically opened to expose rat lungs. Lung tissues were collected, and blinded tissues were sectioned by Reveal Bio (San Diego, CA) at 5 μm thickness. 2 tissue sections for each animal were earmarked for Trichrome staining; and 8 more sections were provided blank for custom staining.
Tissue sections were stained using trichrome staining to visualize pulmonary arteries for all treatment and control groups. Stained lung sections were imaged using Zeiss Axio Scope A1 microscope equipped with Axiocam 506 color camera and Zeiss Zen 2.3 software. Medial wall thickness for similar sized pulmonary arteries was measured using a Motic BA210 microscope and measurements were made using Motic Image plus 2.0 software. Five pulmonary artery walls were analyzed per animal (n=2 to 5)
After 3 weeks, hemodynamic studies were performed.

[2] = tested on: serum-starved bovine PASMCs; experiment: Annexin V FITC assay (apoptotic induction); format: cell-based; settings: 2.5 or 5 μM, 24 hours, concentration-dependent
Protocol: In FIGS. 9A-9B, PASMC were serum starved for 24 hours, and then treated with varying QA concentrations in serum-starved media. Quantification was performed using Cyto-ID® autophagy kit and Annexin-V/FITC apoptosis kit. […] In FIG. 9C, autophagy inhibition by QA (5 μM) as depicted by increase in LC3B-II concentration in bovine high altitude PASMC quantified by western blot assay kit. Data represent mean±SD (n=3). *p<0.05.
Bovine PASMC were serum starved in FBS-free media for 24 hours, and then treated with QA for 24 hours at various concentrations (0, 2.5, or 5 μM). Annexin V levels were measured with Annexin V FITC assay kit (#600300, Cayman Chemical, Ann Arbor, MI) according to manufacturer's manual.
(§1) An apoptotic induction assay, i.e., Caspase-3 assay was performed to understand QA's impact on cellular apoptosis in primary human PASMCs following 6-hour treatment. […] Moreover, another apoptotic induction assay, i.e., Annexin V FITC assay was also used to measure the effects of QA on serum-starved bovine PASMCs.
In other independent experiments, QA's ability to modulate autophagy/apoptotic pathways was quantified in vitro in serum-starved bovine PASMC cells. Similar results were observed.

primary human PASMCs = experiment: Caspase-3 assay (apoptotic induction); format: cell-based; settings: 6-hour treatment, 5 and 10 μM, concentration-dependent
Protocol: Caspase-3 level in SMC II cells was evaluated using EnzCheck™ Caspase-3 assay kit (ThermoFisher Scientific, Waltham, MA, USA) following the manufacturer's protocol. Briefly, upon 90% confluency, SMC II cells were harvested and seeded in 100 mm TC treated culture dishes at a density of 250,000 cells/well and allowed to adhere overnight. Following day, cells were treated with QA (5- and 10-μM) for 6 hours followed by harvesting. Harvested cells were lysed using a lysis buffer for 30 minutes on ice. The cells were centrifuged, and supernatant was used to analyze levels of a caspase-3 substrate aminomethylcoumarin (AMC)-derived substrate Z-DEVD-AMC (fluorescence measurement at 360 ex/460 em).
as §1

`CCN(CC)CCCC(C)Nc1c2ccc(Cl)cc2nc2ccc(OC)cc12` (stereo not shown) [QA, quinacrine] was tested, and the cellular hyper-proliferation (primary human PASMC) was “Significant reduction”, the “medial wall thickness in pulmonary arterioles” value ([1]; SU5416/hypoxia rats (FIG. 14D)) was “significant reduction” and the “vessel muscularization (less completely muscularized blood vessels than control)” value ([1]; SU5416/hypoxia rats, pulmonary arterioles) was 3.5 folds. The “collagen and muscular deposition in pulmonary arterioles” value ([1]; SU5416/hypoxia rats, trichrome staining) was “significant reduction”, the “reduction in medial wall thickness of pulmonary arteries” value ([1]; compared to SU5416/hypoxia-induced PAH animal tissue sections (FIG. 16)) was “about 2 fold” and the “apoptotic induction (fluorescence intensity of Annexin-V stained cells)” value [2] was “significantly enhanced apoptotic induction”. For the same compound, the caspase-3 levels (primary human PASMCs) was “increased caspase-3 levels”.
